Experiment [1] concerns the target T1, human GR (Homo sapiens, UniProt P04150).
T1 sequence (P04150 1-777): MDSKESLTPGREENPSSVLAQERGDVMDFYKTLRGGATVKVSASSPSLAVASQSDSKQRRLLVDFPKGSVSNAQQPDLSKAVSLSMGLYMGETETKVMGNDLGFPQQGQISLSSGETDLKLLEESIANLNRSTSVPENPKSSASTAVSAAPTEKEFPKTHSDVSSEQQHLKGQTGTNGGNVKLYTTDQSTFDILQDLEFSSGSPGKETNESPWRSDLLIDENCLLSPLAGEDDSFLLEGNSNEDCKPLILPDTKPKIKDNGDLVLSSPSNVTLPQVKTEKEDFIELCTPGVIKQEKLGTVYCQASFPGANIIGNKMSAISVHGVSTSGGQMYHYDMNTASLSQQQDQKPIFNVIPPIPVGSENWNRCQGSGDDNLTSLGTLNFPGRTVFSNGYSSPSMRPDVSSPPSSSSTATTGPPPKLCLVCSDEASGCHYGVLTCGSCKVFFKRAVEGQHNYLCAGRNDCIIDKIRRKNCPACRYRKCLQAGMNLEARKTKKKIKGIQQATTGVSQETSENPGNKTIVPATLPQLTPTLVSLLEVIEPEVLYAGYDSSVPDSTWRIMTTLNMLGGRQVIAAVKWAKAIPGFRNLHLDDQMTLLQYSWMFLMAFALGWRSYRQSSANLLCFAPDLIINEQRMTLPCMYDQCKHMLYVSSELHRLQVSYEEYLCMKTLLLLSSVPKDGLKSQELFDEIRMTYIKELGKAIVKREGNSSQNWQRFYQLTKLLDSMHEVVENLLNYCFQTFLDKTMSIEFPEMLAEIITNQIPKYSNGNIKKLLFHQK
The experiment is described as follows: Trans-Activation Modulation of Glucocorticoid Receptor (GRAMMER), MMTV-LUC reporter, agonist mode. As to conditions: for Emax: A549, A549 cells, maximum activity, read-out: Transactivation A549 Cells GRAMMER Emax; for EC50: A549 cells, inflection point, read-out: Transactivation A549 Cells GRAMMER IP. It counts as cell-based. Details: endogenous in cells. The text has this: This assay assesses the ability of test compounds to control transcription from the MMTV-LUC reporter gene in lung adenocarcinoma A549 cells or MDA-MB-453 cells, a human breast cancer cell line that naturally expresses the human GR. The assay measures induction of a modified MMTV LTR/promoter linked to the LUC reporter gene.
The routine transient assay consists of plating 7,000-25,000 cells/well of a white, clear-bottom 96-well plate. Alternatively, 384-well plates can be used at a cell concentration of 10,000/well. The media that the cells are plated in is “exponential growth medium” which consists of phenol red-free RPMI1640 containing 10% FBS, 4 mM L-glutamine, 20 mM HEPES, 10 ug/mL human insulin, and 20 ug/mL gentamicin. Incubator conditions are 37° C. and 5% CO2. The transfection is done in batch mode. The cells are trypsinized and counted to the right cell number in the proper amount of fresh media. It is then gently mixed with the FuGene6/DNA mix and plated onto the 96 or 384-well plate, all the wells receive 100 uL or 40 uL, respectively, of medium+lipid/DNA complex then incubated 37° C. overnight. The transfection cocktail consists of serum-free OptiMEM, FuGene6 reagent and DNA. The manufacturer's (Roche Biochemical) protocol for cocktail setup is as follows: The lipid to DNA ratio is approximately 2.5:1 and the incubation time is 20 min at room temperature. Sixteen to 24 hours after transfection, the cells are treated with dexamethasone to a final concentration of 10 nM as well as the compound of interest, such that final DMSO (vehicle) concentration is equal to or less than 1%. Each plate also contains samples that are treated with 10 nM dexamethasone alone, which is used as the 100% activity control. The cells are exposed to the compounds for 24 hours. After 24 hours, the cells are lysed by a Promega cell culture lysis buffer for approximately 30 min and then the luciferase activity in the extracts is assayed in the 96-well format luminometer. In 384-well format, Steady-Glo (Promega) or Steady-Lite (PerkinElmer) can be used by adding an equal volume of reagent to the media present in each well. Activity induced by 10 nM dexamethasone alone is set at 100% activity. Antagonist activity is calculated by determining the decrease in dexamethasone-induced activity in response to compound treatment relative to samples that were treated with dexamethasone alone. […] This transactivation assay can be performed in an agonist and antagonist mode to identify these different activities.

Experiment [2] concerns the target T1, human GR. The experiment is described as follows: Transrepression Assay (GITAR), TNFα-β-lactamase reporter in U937 cells. The format is cell-based. Details: U937 cells contain an endogenous glucocorticoid receptor (GR); endogenous in cells; host or cells: U937 cells stably transfected with the TNF-alpha promoter/beta-lactamase reporter. As to conditions: for GITAR > GRAMM % SEP: GITAR Emax minus GRAMMER Emax; for EC50: U937 cells, inflection point, read-out: Transrepression U937 Cells GITAR IP. The source says: This assay assesses the ability of test compounds to control transcription from the TNFα-β-lactamase reporter gene in U937 cells, a human myelomonocytic leukemia cell line that naturally expresses the human GR. The assay measures compound dependent-repression of the TNFa promoter linked to a reporter gene.
The human U937 cells that had been stablely transfected with the TNF-α promoter driving β-lactamase are used for this assay. U937 cells contain an endogenous glucocorticoid receptor (GR). Cells are maintained in RPMI 1640 Growth medium (Gibco Cat#11875-093) containing 25 mM HEPES, 10% FBS, 2 mM L-Glutamine, 1 mM Sodium pyruvate, 25 μg/ml Gentamicin (Gibco Cat#15710-064), 1:1000 2-Mercaptoethanol (Gibco Cat#21985-023) and 0.8 mg/ml G418 (Gibco Cat#10131-027). The density of the cells in the flask needs to be about 1×10^6−3×10^6/ml at the time of harvest. Usually, the cells are split to 1.2˜1.4×10^5/ml (1:10) 3 days prior to the assay. 50,000 cells/well are plated in 96 well black-walled plates the day of assay. Test compounds are added 10 μL/well, and cells are incubated at 37° C. for 30˜45 min. For assaying compounds, first dilute 1:10 in DMSO to make 1 mM, then further dilute 1:100 in medium to make 10× stock prior to adding to the cells. Add 50 ng/mlPMA (Sigma, cat# P8139) 10 μL/well to a final concentration 5 ng/ml, and 1 μg/ml LPS (Sigma, cat# L4130) 10 μL/well to a final concentration 100 ng/ml. Incubate cells at 37° C. overnight for ˜18 hr. PMA is stored frozen as 100 μg/ml stock in DMSO. Dilute 1:10 in DMSO for a working stock of 10 μg/ml and store at −20 C. For assaying, dilute the 10 μg/ml working stock 1:200 in medium to make a 10× solution (50 ng/ml). Store frozen LPS at 1 mg/ml in PBS, dilute 1:1000 in medium to make 10× (1 μg/ml) for the assay. Add 6× loading buffer (CCF2-AM) 20 μL/well, and incubate at room temperature for 70˜90 min. […] The activity repressed by 100 nM dexamethasone alone is set as 100% activity.

The mark [3] stands for this setting: U-937, U937 cells, maximum activity, read-out: Transrepression U937 Cells GITAR Emax.
[4] abbreviates: U-937, activity repressed by 100 nM dexamethasone alone set as 100%, read-out: maximal activity in the transrepression (GITAR) assay.

Consider `C[C@]12Cc3cnn(-c4ccc(F)cc4)c3C=C1CC[C@@H]2CN(CC1CC1)S(=O)(=O)c1cc(C(F)(F)F)ccc1Cl` [Example 5, 2-chloro-N-(cyclopropylmethyl)-N-{[(4αR,5S)-1-(4-fluorophenyl)-4α-methyl-1,4,4α,5,6,7-hexahydrocyclopenta[f]indazol-5-yl]methyl}-5-(trifluoromethyl)benzenesulfonamide], for which the Emax is 2.9% in experiment [1], 19.2% in experiment [2] (setting [3]) and above 5% in experiment [2] (setting [4]). The figures for the EC50 in experiment [1] and in experiment [2] were 0.421 µM and 0.223 µM, respectively. In addition, the “GITAR > GRAMM % SEP” value in experiment [2] worked out at 16.2%.

On to `CC(=O)Nc1ccc(S(=O)(=O)N(CC2CC2)C[C@H]2CCC3=Cc4c(cnn4-c4ccc(F)cc4)C[C@@]32C)cc1` [Example 6, N-{4-[((cyclopropylmethyl){[(4αR,5S)-1-(4-fluorophenyl)-4α-methyl-1,4,4α,5,6,7-hexahydrocyclopenta[f]indazol-5-yl]methyl}amino)sulfonyl]phenyl}acetamide], for which the Emax is 13% in experiment [1], 49% in experiment [2] (setting [3]) and above 5% in experiment [2] (setting [4]). In addition, the figures for the EC50 in experiment [1] and in experiment [2] were 0.402 µM and 1.01 µM, respectively. In addition, the “GITAR > GRAMM % SEP” value in experiment [2] was determined as 36.0%.

`Cc1nn(C)c(Cl)c1S(=O)(=O)N(CC1CC1)C[C@H]1CCC2=Cc3c(cnn3-c3ccc(F)cc3)C[C@@]21C` [Example 7]: the Emax was 36.3% in experiment [1], 56% in experiment [2] (setting [3]) and above 5% in experiment [2] (setting [4]). In addition, the EC50 in experiment [1] came to 0.351 µM; in experiment [2], 0.389 µM. Also, in experiment [2], the “GITAR > GRAMM % SEP” value is on record as 19.7%.

In the case of `CN1CCOc2cc(S(=O)(=O)N(CC3CC3)C[C@H]3CCC4=Cc5c(cnn5-c5ccc(F)cc5)C[C@@]43C)ccc21` [Example 8, N-(cyclopropylmethyl)-N-{[(4αR,5S)-1-(4-fluorophenyl)-4α-methyl-1,4,4α,5,6,7-hexahydrocyclopenta[f]indazol-5-yl]methyl}-4-methyl-3,4-dihydro-2H-1,4-benzoxazine-7-sulfonamide], the Emax was 4.9% in experiment [1], 17.4% in experiment [2] (setting [3]) and above 5% in experiment [2] (setting [4]). Moreover, the EC50 in experiment [1] turned out to be 0.037 µM; in experiment [2], 0.424 µM. Moreover, the “GITAR > GRAMM % SEP” value in experiment [2] came to 12.4%.

As to `CCCCCc1ccc(S(=O)(=O)N(CC2CC2)C[C@H]2CCC3=Cc4c(cnn4-c4ccc(F)cc4)C[C@@]32C)cc1` [Example 9, N-(cyclopropylmethyl)-N-{[(4αR,5S)-1-(4-fluorophenyl)-4α-methyl-1,4,4α,5,6,7-hexahydrocyclopenta[f]indazol-5-yl]methyl}-4-pentylbenzenesulfonamide], the Emax is 12.7% in experiment [1], 28.1% in experiment [2] (setting [3]) and above 5% in experiment [2] (setting [4]). Moreover, the EC50 in experiment [1] is 1.13 µM; in experiment [2] it was 0.959 µM. The “GITAR > GRAMM % SEP” value in experiment [2] is reported as 15.4%.

Consider `C[C@]12Cc3cnn(-c4ccc(F)cc4)c3C=C1CC[C@@H]2CN(CC1CC1)S(=O)(=O)c1ccc(-c2ccccc2)cc1` [Example 10, N-(cyclopropylmethyl)-N-{[(4αR,5S)-1-(4-fluorophenyl)-4α-methyl-1,4,4α,5,6,7-hexahydrocyclopenta[f]indazol-5-yl]methyl}biphenyl-4-sulfonamide], for which the Emax in experiment [1] was 12.3%; in experiment [2] (setting [3]) it was 46.6%; in experiment [2] (setting [4]) it was above 5%. For the same compound, the EC50 in experiment [1] worked out at 0.615 µM; in experiment [2], 0.465 µM. In addition, the “GITAR > GRAMM % SEP” value in experiment [2] is on record as 34.4%.

`Cc1noc(C)c1S(=O)(=O)N(CC1CC1)C[C@H]1CCC2=Cc3c(cnn3-c3ccc(F)cc3)C[C@@]21C` [Example 11, N-(cyclopropylmethyl)-N-{[(4αR,5S)-1-(4-fluorophenyl)-4α-methyl-1,4,4α,5,6,7-hexahydrocyclopenta[f]indazol-5-yl]methyl}-3,5-dimethylisoxazole-4-sulfonamide]: the Emax is 66% in experiment [1], 89.1% in experiment [2] (setting [3]) and above 5% in experiment [2] (setting [4]). For the same compound, the figures for the EC50 in experiment [1] and in experiment [2] were 0.235 µM and 0.206 µM, respectively. The “GITAR > GRAMM % SEP” value in experiment [2] was 23.1%.

With `CCCS(=O)(=O)N(CCOC)C[C@H]1CCC2=Cc3c(cnn3-c3ccc(F)cc3)C[C@@]21C` [Example 95, N-{[(4αR,5S)-1-(4-fluorophenyl)-4α-methyl-1,4,4α,5,6,7-hexahydrocyclopenta[f]indazol-5-yl]methyl}-N-(2-methoxyethyl)propane-1-sulfonamide], the Emax in experiment [1] is 70.4%; in experiment [2] (setting [3]) it was 73.1%; in experiment [2] (setting [4]), above 5%. In addition, the results for the EC50 in experiment [1] and in experiment [2] were 0.559 µM and 0.464 µM, respectively. In addition, the “GITAR > GRAMM % SEP” value in experiment [2] amounted to 2.7%.

On to `COCCN(C[C@H]1CCC2=Cc3c(cnn3-c3ccc(F)cc3)C[C@@]21C)S(C)(=O)=O` [Example 96, N-{[(4αR,5S)-1-(4-fluorophenyl)-4α-methyl-1,4,4α,5,6,7-hexahydrocyclopenta[f]indazol-5-yl]methyl}-N-(2-methoxyethyl)methanesulfonamide], for which the Emax is 65.7% in experiment [1], 85% in experiment [2] (setting [3]) and above 5% in experiment [2] (setting [4]). The EC50 came to 0.152 µM in experiment [1] and 0.124 µM in experiment [2]. Also, the “GITAR > GRAMM % SEP” value in experiment [2] amounted to 19.3%.

The values are drawn from US8299048B2, “Hexahydrocyclopentyl[f]indazole sulfonamides and derivatives thereof as selective glucocorticoid receptor modulators” (Merck Sharp & Dohme Corp., priority 2008, dated 2012).
